Several values for one entry are separate records, joined by “and”; a condition that tells them apart may be missing. Equal entries are not always repeated.
Key:
[1] = system: IFN-γ; experiment: IFN-γ in BALF of M. pneumoniae-infected mice (ELISA); format: in vivo, BALB/c mice; conditions: for IFN-γ in BALF (AV): group AV; for IFN-γ in BALF: individual mice
Procedure: (§1) Adult BALB/c mice (20–22 g) were divided into a control group, a positive group, and compound 16C groups at low (20 mg/kg), medium (40 mg/kg), and high-dose (80 mg/kg) levels and oral and intramuscular tiamulin treatment groups (40 mg/kg). We formulated the above dose range based on the dose at which tiamulin was approved for injection (10–20 mg/kg) and the dose previously reported (45 mg/kg) ([EMA, 1999]; [Xiao et al., 2016]). In summary, we selected similar doses for compound 16C in vivo study. 40 mg/kg was used as an intermediate value, one-half of it as a low dose, and two times of it as a high dose. To prepare the challenge solution, logarithmic phase culture suspensions were centrifuged at 1700 g for 10 min, and the pellets were suspended in sterile PBS to obtain 1 × 10^9 CFU/mL. Before the challenge, mice were anesthetized with tribromoethanol (250 mg/kg, IP). Mice in the control groups were intratracheally inoculated with sterile PBS, whereas mice in the other groups were intratracheally challenged with 50 μL (1 × 10^9 CFU/mL) M. pneumoniae suspension once a day for 3 days. Compound 16C and tiamulin (tiamulin-IM group) dissolved using the method mentioned in pharmacokinetic studies, and the tiamulin fumarate soluble powder was dissolved in ddH2O for oral administration. After the final challenge, antibiotics were administered at low, medium, and high-dose levels (see above) at 10 a.m. and 10 p.m. daily for 4 consecutive days. Normal saline containing 5% DMSO and 5% Tween-80 was administered as control and positive groups by thigh intramuscular injection. To compare the efficacy of compound 16C and tiamulin under the same route of administration, we used the original tiamulin for intramuscular administration in the same formulation. On the other hand, tiamulin fumarate soluble powder, approved for oral administration to treat animal mycoplasma diseases in China, was administered to mice by gavage. Based on a clinical study of lefamulin in community-acquired bacterial pneumonia (CABP), subjects were administered twice a day and the 96 ± 24 h of starting treatment was an essential point for early clinical response (ECR) ([Paukner et al., 2022]). We therefore stopped treatment at 96 h and sampled at 192 h to explore whether the disease worsened after cessation of treatment. Bronchoalveolar lavage fluid (BALF) and lungs were collected at 0, 96, 192 h (Samples of 0 h were collected before starting treatment, and mice were fed ad libitum without drug treatment during 96–192 h) after the first dose, BALF for cytokine and cytological analysis and lung for histopathological evaluation.
(§2) Bronchoalveolar lavage was performed according to a standardized method ([Van Hoecke et al., 2017]). BALF was obtained following infusion of 0.5 mL PBS via tracheal cannulation into the lung twice (total 1 mL), and 200 µL was used for mycoplasma counts. The remaining BALF was centrifuged at 300 g for 10 min to separate the debris. The supernatants were stored at −80°C, and the debris was resuspended in the same volume of PBS containing red blood cell lysis buffer. A hemocytometer was used to count total cell numbers in BALF, and cell smears (Diff-Quik staining) were prepared to calculate the percentages of neutrophils, macrophages, and lymphocytes. IFN-γ, TNF-α, and CXCL1 levels in BALF samples were assessed using commercial ELISA kits using guidelines recommended by the manufacturer (Elabscience, Wuhan, China). Parallel data for each experimental group at each time point were obtained from six different mice.

[2] = design: method as in Shang et al., 2018; Xianhui, 2010; conditions: piglets, IM; ref Shang et al., 2018; Xianhui, 2010; cited from earlier work
[3] = system: CXCL1; experiment: CXCL1 in BALF of M. pneumoniae-infected mice (ELISA); format: in vivo, BALB/c mice; conditions: for CXCL1 in BALF (AV): group AV; for CXCL1 in BALF: individual mice
Procedure: as §1, §2

[4] = system: bronchial epithelial cell line 16HBE; design: method as in PMID 26150841; conditions: ref [30]; cited from earlier work
[5] = system: ICR strain mice; experiment: Acute toxicity study, oral gavage; format: in vivo
Procedure: Twenty four male and female SPF-grade ICR strain mice were randomly divided into 6 groups of 4 mice each. Compound 16C was dissolved in DMSO at doses of 0, 8, 40, 200, 1,000, and 5,000 mg/kg and was administered to the mice by gavage.
Ten mice were gavaged with 5,000 mg/kg of compound 16C and another 10 mice were given DMSO orally as a control. The mice were fed and watered ad libitum. The animals’ appearance, diet, behavior, and death were observed and recorded for 14 consecutive days after administration. The LD50 was calculated as previously described ([Xiao et al., 2019]), and the test was repeated twice. To assess the acute toxicity of intramuscular administration in mice, we repeated the above experiment and replaced gavage with intramuscular injection.

[6] = tiamulin 40 mg/kg IM, 96 h, listed as Tiamulin-IM
[7] = tiamulin 40 mg/kg IM, 192 h, listed as Tiamulin-IM
[8] = compound 16C 20 mg/kg IM, 192 h
[9] = compound 16C 40 mg/kg IM, 192 h
[10] = compound 16C 80 mg/kg IM, 192 h

Compound: C=C[C@]1(C)C[C@@H](OC(=O)CSCCN(CC)CC)[C@]2(C)[C@H](C)CC[C@]3(CCC(=O)[C@H]32)[C@@H](C)[C@@H]1O [tiamulin, Tiamulin, reference compound]
- IFN-γ in BALF (AV) ([1]; tiamulin 40 mg/kg IM, 96h): 32.2202 pg/mL
- IFN-γ in BALF [1, 6]: 44.0596 pg/mL and 23.033 pg/mL and 20.7601 pg/mL and 28.3723 pg/mL and 44.8757 pg/mL
- IFN-γ in BALF (AV) ([1]; tiamulin 40 mg/kg IM, 192 h): 31.227 pg/mL
- IFN-γ in BALF [1, 7]: 40.7875 pg/mL and 41.6067 pg/mL and 42.4252 pg/mL and 23.316 pg/mL and 21.0452 pg/mL and 18.1814 pg/mL
- bioavailability [2]: 73.51% and 75.73%
- CXCL1 in BALF (AV) [3, 6]: 35.2692 pg/mL
- CXCL1 in BALF [3, 6]: 32.338 pg/mL and 47.9047 pg/mL and 25.7589 pg/mL and 33.1238 pg/mL and 37.221 pg/mL
- CXCL1 in BALF (AV) ([3]; tiamulin 40 mg/kg IM, 192 h): 47.4109 pg/mL
- CXCL1 in BALF [3, 7]: 47.2576 pg/mL and 36.3942 pg/mL and 46.6093 pg/mL and 59.3827 pg/mL
- CXCL1 in BALF (AV) ([3]; tiamulin 40 mg/kg PO (fumarate soluble powder), 96 h): 40.932 pg/mL
- CXCL1 in BALF (AV) ([3]; tiamulin 40 mg/kg PO (fumarate soluble powder), 192 h): 46.955 pg/mL

Compound: C=CC1(C)CC(OC(=O)CSc2ccc(NC(=O)Cc3ccc([N+](=O)[O-])cc3)cc2)C2(C)C(C)CCC3(CCC(=O)C32)C(C)C1O (stereo not shown) [compound 16C, 22–((4-((4-nitrophenyl)acetamido)phenyl)thio)deoxypleuromutilin]
- influence on cell viability [4]: slightly more affected
- deaths (pre-test) ([5]; gavage 8, 40, 200, 1,000, and 5,000 mg/kg in DMSO, observed 14 d): no deaths were observed
- mouse deaths ([5]; oral gavage, single dose of 5,000 mg/kg, after 2 weeks): did not result in any mouse deaths
- LD50 ([5]; oral gavage, single dose, mice, observed 14 d): > 5,000 mg/kg
- symptoms observed ([5]; single dose of 5,000 mg/kg, oral gavage or intramuscular injection, mice rapidly recovered): anorexic symptoms
- IFN-γ in BALF (AV) ([1]; compound 16C 20 mg/kg IM, 96 h): 61.9115 pg/mL
- IFN-γ in BALF ([1]; compound 16C 20 mg/kg IM, 96 h): 66.1116 pg/mL and 70.7764 pg/mL and 60.3497 pg/mL and 48.4263 pg/mL and 63.8937 pg/mL
- IFN-γ in BALF (AV) [1, 8]: 53.7268 pg/mL
- IFN-γ in BALF [1, 8]: 69.6648 pg/mL and 70.9988 pg/mL and 47.7654 pg/mL and 32.8171 pg/mL and 65.2242 pg/mL and 35.8907 pg/mL
- IFN-γ in BALF (AV) ([1]; compound 16C 40 mg/kg IM, 96 h): 31.4597 pg/mL
- IFN-γ in BALF ([1]; compound 16C 40 mg/kg IM, 96 h): 36.9995 pg/mL and 36.109 pg/mL and 18.2065 pg/mL and 31.1186 pg/mL and 39.6709 pg/mL and 26.6536 pg/mL
- IFN-γ in BALF (AV) [1, 9]: 43.7114 pg/mL
- IFN-γ in BALF [1, 9]: 35.5746 pg/mL and 45.5493 pg/mL and 40.3832 pg/mL and 54.2951 pg/mL and 42.5204 pg/mL and 43.9456 pg/mL
- IFN-γ in BALF (AV) ([1]; compound 16C 80 mg/kg IM, 96 h): 33.085 pg/mL
- IFN-γ in BALF ([1]; compound 16C 80 mg/kg IM, 96 h): 42.8939 pg/mL and 46.612 pg/mL and 43.7193 pg/mL and 17.0898 pg/mL and 29.6102 pg/mL and 18.5846 pg/mL
- IFN-γ in BALF (AV) [1, 10]: 30.1626 pg/mL
- IFN-γ in BALF [1, 10]: 41.5193 pg/mL and 31.3845 pg/mL and 29.0646 pg/mL and 27.0198 pg/mL and 28.7918 pg/mL and 26.4748 pg/mL and 26.8835 pg/mL
- CXCL1 in BALF (AV) ([3]; compound 16C 20 mg/kg IM, 96 h): 48.0123 pg/mL
- CXCL1 in BALF ([3]; compound 16C 20 mg/kg IM, 96 h): 56.3478 pg/mL and 48.458 pg/mL and 47.2524 pg/mL and 45.2286 pg/mL and 42.7748 pg/mL
- CXCL1 in BALF (AV) [3, 8]: 38.192 pg/mL
- CXCL1 in BALF [3, 8]: 48.0568 pg/mL and 31.7563 pg/mL and 40.2912 pg/mL and 33.499 pg/mL and 37.352 pg/mL and 38.1966 pg/mL
- CXCL1 in BALF (AV) ([3]; compound 16C 40 mg/kg IM, 96 h): 22.7681 pg/mL
- CXCL1 in BALF ([3]; compound 16C 40 mg/kg IM, 96 h): 15.9622 pg/mL and 24.4156 pg/mL and 34.1197 pg/mL and 28.066 pg/mL and 17.0225 pg/mL
- CXCL1 in BALF (AV) [3, 9]: 28.9333 pg/mL
- CXCL1 in BALF [3, 9]: 23.476 pg/mL and 20.5799 pg/mL and 29.3957 pg/mL and 43.4026 pg/mL and 16.4951 pg/mL and 40.2505 pg/mL
- CXCL1 in BALF (AV) ([3]; compound 16C 80 mg/kg IM, 96 h): 24.5788 pg/mL
- CXCL1 in BALF ([3]; compound 16C 80 mg/kg IM, 96 h): 33.6631 pg/mL and 23.7534 pg/mL and 35.719 pg/mL and 18.1872 pg/mL and 17.5299 pg/mL and 18.6204 pg/mL
- CXCL1 in BALF (AV) [3, 10]: 39.611 pg/mL
- CXCL1 in BALF [3, 10]: 45.7844 pg/mL and 28.8637 pg/mL and 42.9442 pg/mL and 41.3398 pg/mL and 45.9405 pg/mL and 32.7936 pg/mL

— article PMC11695783 (Frontiers in Pharmacology, 2024)
